Source: patent publication US20220193111A1, “Method of Treatment” (The University Court of the University of Edinburgh, priority 2018, published 2022)

B1: miR-148b mimic: miR-148b mimic oligonucleotide; in a particular embodiment has SEQ ID NO: 1, the human precursor miR-148b sequence (nucleic acid)
chain: CAAGCACGAUUAGCAUUUGAGGUGAAGUUCUGUUAUACACUCAGGCUGUGGCUCUCUGAAAGUCAGUGCAUCACAGAACUUUGUCUCGAAAGCUUUCUA
modifications: listed as RNA, chemistry not given here

Legend:
Assay type in all cases: cell-based, human
HUVECs [1] = test: Gene (qPCR) and protein (Western blot) expression in transfected HUVECs
Experimental: Human umbilical vein ECs (HUVECs; Lonza) were grown in EGM-2 (comprising EBM-2 with growth factors and other supplements) with 2% Foetal Bovine Serum. Confluent HUVECs were treated with 10 ng/ml TNF-α, IL-1β, TGFβ2 (PeproTech); medium and cytokines were changed every two days. SB431542 (Tocris) has been used at the dose of 10 μM. HEK293T cells (ATCC®, CRL-11268) were cultured in D-MEM with 10% FBS (Life Technologies).
Total RNA was extracted using miReasy kit (Qiagen). Real-time quantification to measure miRNAs was performed with the TaqMan miRNA reverse transcription kit and miRNA assay (Life Technology) using Lightcycler 480 (Roche). miRNAs expression was normalized to the U6 […] (snRU6). For mRNA analysis, cDNA was amplified by quantitative real-time PCR (qPCR) and normalized to 18S ribosomal RNA. Each reaction was performed in triplicate. Quantification was performed by the 2^−ΔΔCt method^52. qPCR was used to measure the expression of miR-148b (miR-148b-3p Thermo Fisher Scientific, Cat. #4426961), snRU6 (ThermoFisher Scientific, Cat. #4331182), TGFβ2, SMAD2, CD31, VE-Cadherin, COL1A1, α-SMA, SLUG, VIM, SNAIL, TWIST, ZEB1/2 and 18S rRNA. Primers are pre-designed from Sigma (KiCgStart™ Primers).
Lipofectamine RNAiMAX (Thermo Fisher Scientific) was used to transfect HUVECs with miR-148b mimic, anti-miR-148b and mimic or anti-miR control (25 nM and […], respectively final concentration) or with siRNA targeting SMAD2 (20 nM final concentration), according to the manufacturer's instructions. jetPEI-HUVECs (Polyplus) was used to transfect HUVECs with DNA plasmids. The following functional assays were performed: BrdU incorporation assay using Cell Proliferation colorimetric assay (Roche); Matrigel assay with HUVECs was performed as previously described using BD Matrigel Basement Membrane Matrix (BD Biosciences)^53.
Proteins were extracted from cultured cells or muscles by using ice-cold buffer A (50 mM Hepes, 150 mM NaCl, 1 mM EDTA, 1 mM EGTA, 25 mM NaF, 5 mM NaPPi, 1%Triton, 1% NP40, 1 mM Na3VO4, 0.25% sodium deoxycholate, 0.5 mM Na-orthovanadate, 1 mM benzamidine, 0.1 mM phenylmethylsulfonyl fluoride). Protein concentration was determined using the Bio-Rad Protein Assay Reagent (Bio-Rad Laboratories, UK). Detection of proteins by Western blot analyses was done following separation of whole cell extracts (20 μg) on SDS-polyacrylamide gels. Proteins were transferred to nitrocellulose membranes and probed with the following antibodies: TGFβ2 (Abcam, ab36495, 1:1000), SMAD2 (SantaCruz Biotechnology, Santa Cruz, Calif., USA; #3102, 1:1000), p-SMAD2 (465/467) (Cell Signaling; #3108, 1:1000); CD31 (Abcam., 1:1000), VE-Cadherin (Abcam, ab33168, 1:1000), COL1A1 (Abcam, ab138492, 1:200), FSP-1 (5100A4; Abcam, ab41532, 1:1000), SLUG (Abcam, ab27568, 1:1000), β-actin (Abcam, ab16039, 1:4000), HDAC3 (GeneTex GTX113303, 1:1000) and GAPDH (GeneTex, GT239, 1:1000) (both used as loading control). For detection, the inventors used secondary antibodies conjugated to horseradish peroxidase which were rabbit anti-mouse (Abcam, ab97046, 1:5000) and goat anti-rabbit (Abcam, ab6721, 1:10000). Detection was developed by chemiluminescence reaction (ECL) (Immunoblot, Millipore, 23225).

HUVECs [2] = test: ECIS plasma membrane capacitance analysis; settings: HUVECs knock-down for miR-148b
Experimental: Confluent HUVECs were transfected with controls or miR-148b mimic or anti-miR-148b and, plated on the ECIS chip array (8W1E or 8W10E). The migration speed was calculated in μm/h, capacitance of the plasma membrane is Cm (μF/cm^2) as reported in Giaever, I, and Keese, C R (1991)^29.

HUVECs [3] = test: Immunofluorescence of transfected HUVECs; settings: anti-miR, 48 hrs
Experimental: Cells were fixed using 4% paraformaldehyde in PBS at room temperature for 15 min. For intracellular staining, fixed cells were permeabilized using 0.5% Triton X-100 in PBS (Sigma-Aldrich) or 0.1% Saponin in PBS at room temperature for 10 min. The blocking of […] antibody activity was performed using 3% bovine serum albumin (BSA) in PBS for 1 hour. Samples were incubated with antibodies to CD31 (Abcam, ab28364, 1:50), VE-cadherin (Abcam, ab33168, 1:100), FSP-1 (Abcam, ab41532, 1:200) and COL1A1 (Abcam, ab138492, 1:100) in PBS containing 1% BSA at 4° C. overnight. Samples were washed extensively with PBS and incubated with Alexa-Fluor-488-conjugated antibodies to rabbit IgG (Life Technologies, Carlsbad, Calif., #A11070) and Alexa-Fluor-594-conjugated antibodies to rabbit IgG (Life Technologies, Carlsbad, Calif., #A11072) in DAPI with PBS with 1% BSA at room temperature for 1 h. Image analysis was performed on Zeiss LSM 780 confocal microscope.

3′UTR of TGFB2 = test: Luciferase reporter assay, wild-type 3′UTR of TGFB2; settings: 48 h post-co-transfection, HEK293T cells or HUVECs; mutation of the binding sites restored it
From the text: Luciferase assay has been performed as previously described^53. TGFB2 3′-UTR and SMAD2 3′-UTR vectors were cloned in pMIR-Reporter (Life Technology). Primers are used for the cloning are: TGFβ2 3′UTR: Forward 5′-[…]-3′ (SEQ ID NO: 7), Reverse 5′-[…]-3′ (SEQ ID NO: 8); SMAD2 3′UTR: Forward 5′-[…]-3′ (SEQ ID NO: 9), Reverse 5′-[…]-3′ (SEQ ID NO: 10). Primers for 3′UTR mutation: TGFB2: Forward […] (SEQ ID NO: 11) and Reverse […] (SEQ ID NO: 12); SMAD2 Forward […] (SEQ ID NO: 13) and Reverse […] (SEQ ID NO: 14). Luciferase constructs were transfected into HEK293T cells or HUVECs together with miR-148b mimics or p-SV-beta-Gal control vector. Cells were cultured for 48 h and assayed with the Luciferase and β-Galactosidase Reporter Assay Systems (Promega). Luciferase values were normalized to protein concentration and β-galactosidase activity.

Row | Molecule | expression of target genes TGFB2 and SMAD2 (mRNA) (HUVECs [1]; anti-miR 75 mM, 48 hrs) | CD31 and VE-cadherin (Western blot) (HUVECs [1]; anti-miR, 48 hrs) | SLUG (Western blot) (HUVECs [1]; anti-miR, 48 hrs) | SLUG expression (mRNA) (HUVECs [1]; anti-miR, 48 hrs) | TGFB2, SMAD2 and its phosphorylation (Western blot) (HUVECs [1]; anti-miR, 48 hrs) | expression of CD31 and VE-Cadherin (mRNA) (HUVECs [1]; anti-miR, 48 hrs) | expression of COL1A1 and FSP-1 (mRNA) (HUVECs [1]; anti-miR, 48 hrs) | mesenchymal markers COL1A1, FSP-1 (Western blot) (HUVECs [1]; anti-miR, 48 hrs) | α-SMA or vimentin (VIM) levels (HUVECs [1]; anti-miR, 48 hrs) | membrane capacitance (Cm) (HUVECs [2]) | CD31 and VE-cadherin immunoreactivity (HUVECs [3]) | COL1A1 and FSP-1 immunoreactivity (HUVECs [3]) | rounded/cobblestone morphology (HUVECs [3]) | luciferase activity, 3′-UTR-TGFB2 reporter (3′UTR of TGFB2) | target gene (TGFB2, SMAD2) mRNA (HUVECs [1]; mimic 25 nM) | target gene (TGFB2, SMAD2) protein levels (HUVECs [1]; mimic 25 nM, Western blot) | expression of ACVR1 and ROCK1 (HUVECs [1]; mimic transfection)
1 | anti-miR-148b: miR-148b inhibitor oligonucleotide; suitable inhibitor: hsa-miR-148b-3p miRCURY LNA inhibitor, CAAAGTTCTGTGATGCACTG (SEQ ID NO: 6) (commercial miRCURY LNA inhibitor, LNA positions not given here) | increased | suppression | up-regulation | strong up-regulation | upregulation | decreased | increased | appearance | without detectable changes | increased | pronounced decrease | increase | lost | – | – | – | –
2 | B1 | – | – | – | – | – | – | – | – | – | – | – | – | – | decreased luciferase activity | reduced | reduced | did not affect
